“Also recorded” adds a separate entry of the source. Read-outs that look alike come from different tables or passages of the source.

The text below walks through data of article PMC3873810, “Structure–Activity Relationship of Adenosine 5′-diphosphoribose at the Transient Receptor Potential Melastatin 2 (TRPM2) Channel: Rational Design of Antagonists” (Journal of Medicinal Chemistry, 2013).

For one assay, the target named is T1, human TRPM2 (Homo sapiens, UniProt O94759).
T1 construct: Specific bands of full length TRPM2 (black arrow) and degradation products (gray arrows) are marked; expressed in transfected cells
T1 sequence (O94759 whole entry): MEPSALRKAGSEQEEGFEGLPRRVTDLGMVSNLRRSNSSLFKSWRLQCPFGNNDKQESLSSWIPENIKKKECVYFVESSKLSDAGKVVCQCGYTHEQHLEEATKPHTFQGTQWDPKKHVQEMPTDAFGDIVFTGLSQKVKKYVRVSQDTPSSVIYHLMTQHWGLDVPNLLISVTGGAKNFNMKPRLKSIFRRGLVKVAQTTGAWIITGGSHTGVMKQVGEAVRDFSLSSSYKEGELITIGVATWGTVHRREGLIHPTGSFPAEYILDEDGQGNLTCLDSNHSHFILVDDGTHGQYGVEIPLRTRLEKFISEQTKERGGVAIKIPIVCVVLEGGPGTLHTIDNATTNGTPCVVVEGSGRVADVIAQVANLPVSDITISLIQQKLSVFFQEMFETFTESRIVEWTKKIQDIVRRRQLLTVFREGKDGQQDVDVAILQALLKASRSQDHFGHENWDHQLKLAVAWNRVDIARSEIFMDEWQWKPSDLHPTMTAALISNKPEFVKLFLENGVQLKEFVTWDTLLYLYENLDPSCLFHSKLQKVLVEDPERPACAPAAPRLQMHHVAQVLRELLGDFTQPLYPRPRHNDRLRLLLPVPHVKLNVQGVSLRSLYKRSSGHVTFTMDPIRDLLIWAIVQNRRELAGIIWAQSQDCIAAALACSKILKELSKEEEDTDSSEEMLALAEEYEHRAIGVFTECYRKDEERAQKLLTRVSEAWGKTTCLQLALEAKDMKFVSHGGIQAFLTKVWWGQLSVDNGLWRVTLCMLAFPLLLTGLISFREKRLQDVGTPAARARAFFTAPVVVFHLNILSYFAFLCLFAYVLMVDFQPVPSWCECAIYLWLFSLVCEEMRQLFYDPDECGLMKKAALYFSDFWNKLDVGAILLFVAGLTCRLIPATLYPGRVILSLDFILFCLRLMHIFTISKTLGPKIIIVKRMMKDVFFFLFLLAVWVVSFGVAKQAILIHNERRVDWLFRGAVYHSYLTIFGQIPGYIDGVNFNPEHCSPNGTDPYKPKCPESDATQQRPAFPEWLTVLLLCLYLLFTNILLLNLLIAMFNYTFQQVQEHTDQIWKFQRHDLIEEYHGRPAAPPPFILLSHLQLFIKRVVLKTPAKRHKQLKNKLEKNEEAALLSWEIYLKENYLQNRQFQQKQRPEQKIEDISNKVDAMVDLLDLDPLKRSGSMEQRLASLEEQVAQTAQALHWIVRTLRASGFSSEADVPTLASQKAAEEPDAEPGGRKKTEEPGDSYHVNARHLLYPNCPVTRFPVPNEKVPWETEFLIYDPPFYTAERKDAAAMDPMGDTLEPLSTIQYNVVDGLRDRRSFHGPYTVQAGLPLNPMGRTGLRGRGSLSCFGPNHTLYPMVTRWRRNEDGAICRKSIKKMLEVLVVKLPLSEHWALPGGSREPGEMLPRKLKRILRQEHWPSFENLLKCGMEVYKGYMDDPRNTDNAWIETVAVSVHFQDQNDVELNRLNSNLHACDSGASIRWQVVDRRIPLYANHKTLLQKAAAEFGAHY
In words: Whole-cell patch clamp, antagonism of TRPM2 activation by 100 μM ADPR in HEK293 clone TRPM2#24. The conditions noted are these: for Antagonist activity at TRPM2, in words: analogue concentration not printed in the sentence (most analogues tested at 900 μM); for Mean outward current of 100 μM ADPR (1) infusion: mean ± SEM. It counts as cell-based. On the technique in general: The patch-clamp technique gives a direct electrical read-out from membranes.

In the next assay the test system is human neutrophils. Briefly: Chemotaxis (migration) of primary human neutrophils in fMLP gradient, μ-Slide Chemotaxis. It counts as cell-based. The conditions noted are these: 50 nM fMLP gradient; fMLP alone, or with 1.5 mM EGTA, or with 100 μM 8-Ph-ADPR (5); 1 h tracking.
In a further assay the test system is murine neutrophils. The arrangement: method as in PMID 18025229. The conditions noted are these: cited from earlier work.
In the next assay the test system is TRPM2. The arrangement: method as in PMID 20650899. The conditions noted are these: even at 60-fold excess of 88 over 1; cited from earlier work.
The next assay deals with TRPM2 channel. The conditions noted are these: read-out: TRPM2 inhibition IC50; cited from earlier work.
The mark [1] stands for this setting: footnote d: could only be tested at 100 μM due to solubility difficulties, 100 μM ADPR, 0.1% DMSO, read-out: Antagonism at TRPM2 (IC50), result as symbol.
Setting [2] is: analogue 100 μM, equimolar to 100 μM ADPR in pipet solution.
Setting [3] is: analogue tested at 900 μM against 100 μM ADPR, footnote c: antagonistic effect observed but not statistically significant, read-out: Antagonism at TRPM2 (IC50), result as symbol.
Where [4] appears, read: analogue 900 μM with 100 μM ADPR in pipet solution.
Where [5] appears, read: against 100 μM ADPR (1) in pipet solution, outward current at +15 mV, HEK293 clone TRPM2#24, read-out: Antagonism at TRPM2 (IC50).

In the case of `CCCCNc1c(NC[C@H]2O[C@@H](n3cnc4c(N)ncnc43)[C@H](O)[C@@H]2O)c(=O)c1=O` [compound 66, 3-(5′-Amino-5′-deoxyadenosine)-4-butylamino-cyclobut-3-ene-1,2-dione], on human TRPM2 (setting [1]), the half-inhibitory concentration (IC50) was more than 900 µM. `Nc1ncnc2c1nc(-c1ccccc1)n2[C@@H]1O[C@H](Cn2cc(COC[C@H]3OC(O)[C@H](O)[C@@H]3O)nn2)[C@@H](O)[C@H]1O` (stereo partly shown) [compound 73, 1-(5′-Deoxy-8-phenyladenosine)-4-(2″,3″-O-isopropylidene-5″-O-methylribosyl)-1,2,3-triazole]: at human TRPM2 (setting [2]), the “Effect on activation of TRPM2 by ADPR (1), in words” value (“Effect on activation of TRPM2” below) is “none of these compounds showed antagonist activity”. The concentration for half-maximal inhibition (IC50) at human TRPM2 (setting [1]) was more than 900 µM. In the case of `O=c1[nH]cnc2c1ccn2[C@@H]1O[C@H](COP(=O)(O)OP(=O)(O)OC[C@H]2OC(O)[C@H](O)[C@@H]2O)[C@@H](O)[C@H]1O` (stereo partly shown) [compound 14, 7-Deaza-IDPR], the “Antagonist activity at TRPM2, in words” value at human TRPM2 (100 μM ADPR) is given as “without significant effect”. Besides, at human TRPM2 (setting [3]), the 50% inhibitory concentration (IC50) is more than 900 µM. For the molecule `CCCCCCNc1c(NC[C@H]2O[C@@H](n3cnc4c(N)ncnc43)[C@H](O)[C@@H]2O)c(=O)c1=O` [compound 67, 3-(5′-Amino-5′-deoxyadenosine)-4-(hexylamino)cyclobut-3-ene-1,2-dione], the half-inhibitory concentration (IC50) on human TRPM2 (setting [1]) is more than 900 µM. Turning to `Nc1ncnc2c1nc(-c1ccccc1)n2[C@@H]1O[C@H](COP(=O)(O)OP(=O)(O)OC2CCCC2)[C@@H](O)[C@H]1O` [compound 84], on human TRPM2 (setting [2]), the “Effect on activation of TRPM2” value was “significant antagonist activity”. In the case of `O=C(O)CN(CCOCCOCCN(CC(=O)O)CC(=O)O)CC(=O)O` [EGTA, reference compound], the “Center of mass ∥ (mean movement in the y direction along fMLP gradient)” value with human neutrophils came to 32.6 μm.

Take `Nc1ncnc2c1ncn2[C@@H]1O[C@H](CNc2c(NC3CCCC3)c(=O)c2=O)[C@@H](O)[C@H]1O` [compound 65, 3-(5′-Amino-5′-deoxyadenosine)-4-(cyclopentylamino)-cyclobut-3-ene-1,2-dione]: the IC50 at human TRPM2 (setting [1]) was more than 900 µM. In the case of `Nc1nc(F)nc2c1ncn2[C@@H]1O[C@H](COP(=O)(O)OP(=O)(O)OC[C@H]2OC(O)[C@H](O)[C@@H]2O)[C@@H](O)[C@H]1O` (stereo partly shown) [compound 16, 2-F-ADPR], the “Antagonist activity at TRPM2, in words” value on human TRPM2 (100 μM ADPR) is “did not antagonize activation of TRPM2”. Moreover, the concentration for half-maximal inhibition (IC50) on human TRPM2 (setting [3]) was more than 900 µM.

For the molecule `Nc1ncnc2c1nc(Br)n2[C@@H]1O[C@H](COP(=O)(O)OP(=O)(O)OC[C@H]2OC(O)[C@H](O)[C@@H]2O)[C@@H](O)[C@H]1O` (stereo partly shown) [compound 4, 8-Br-ADPR, reference compound], the “Effect on activation of TRPM2” value at human TRPM2 (setting [4]) was “significantly inhibited TRPM2 activation”. Further, the “Sensitivity of Ca2+ signalling and chemotaxis of murine neutrophils, in words” value with murine neutrophils is recorded as “very sensitive”. `Nc1ncnc2c1ncn2[C@@H]1O[C@H](COP(=O)(O)O)[C@@H](O)[C@H]1O` [compound 88, adenosine 5′-monophosphate, reference compound]: the “Antagonist activity at TRPM2, in words” value on human TRPM2 (100 μM ADPR) is “no antagonist activity; also recorded: ineffective”. Also, the “Inhibition of ADPR-mediated currents, in words” value in the assay on TRPM2 is given as “not shown any inhibition”.

As for `Nc1ncnc2c1ncn2[C@@H]1O[C@H](COP(=O)(O)OP(=O)(O)O)[C@@H](O)[C@H]1O` [compound 44, adenosine 5′-diphosphate, reference compound], the “Antagonist activity at TRPM2, in words” value at human TRPM2 (100 μM ADPR) was “inactive”. As to `Nc1ncnc2c1ncn2[C@@H]1O[C@H](COP(=O)(O)OP(=O)(O)OC[C@H]2OC(O)[C@H](O)[C@@H]2O)[C@@H](O)[C@H]1O` (stereo partly shown) [compound 1, Adenosine 5′-diphosphoribose], the “Mean outward current of 100 μM ADPR (1) infusion” value at human TRPM2 (control of the set of experiments for 4, n = 16) is listed as 1.13 ± 0.14 nA; at human TRPM2 (control of the set of experiments for 5, n = 16), 1.17 ± 0.13 nA; at human TRPM2 (control of the set of experiments for 6, n = 20), 1.70 ± 0.25 nA; on human TRPM2 (control of the set of experiments for 7, n = 22), 1.25 ± 0.14 nA; at human TRPM2 (control of the set of experiments for 84, n = 8), 1.44 ± 0.20 nA; on human TRPM2 (control of the set of experiments for 86, n = 15), 1.23 ± 0.22 nA. For the molecule `Nc1ncnc2c1ncn2[C@@H]1O[C@H](CNc2c(NC[C@H]3O[C@@H](O)[C@H](O)[C@@H]3O)c(=O)c2=O)[C@@H](O)[C@H]1O` [compound 64, 3-(5′-Amino-5′-deoxyadenosine)-4-(5″-amino-5″-deoxy-β-D-ribofuranose)cyclobut-3-ene-1,2-dione], the IC50 on human TRPM2 (setting [1]) was more than 900 µM. For the molecule `Nc1ncnc2c1ncn2[C@@H]1O[C@H](COP(=O)(O)OP(=O)(O)OP(=O)(O)OC[C@H]2OC(O)[C@H](O)[C@@H]2O)[C@@H](O)[C@H]1O` (stereo partly shown) [compound 47, Adenosine Triphosphoribose], on human TRPM2 (setting [4]), the “Effect on activation of TRPM2” value is “some antagonist effect”. In addition, at human TRPM2 (setting [3]), the half-maximal inhibitory concentration (IC50) was more than 900 µM. As for `Nc1ncnc2c1ncn2CCCCOP(=O)(O)OP(=O)(O)OC[C@H]1OC(O)[C@H](O)[C@@H]1O` (stereo partly shown) [compound 30, 9-(4-Hydroxybutyl)adenine-5′-diphosphoribose], the “Antagonism at TRPM2 (IC50)” value on human TRPM2 (against 100 μM ADPR (1) in pipet solution, outward current at +15 mV, HEK293 clone TRPM2#24) was “upper micromolar range”. Further, the “Effect on activation of TRPM2” value on human TRPM2 (setting [2]) is “no inhibition”; on human TRPM2 (setting [4]), “nearly complete inhibition”.

With `Nc1ncnc2c1nc(-c1ccc(CC(N)C(=O)O)cc1)n2[C@@H]1O[C@H](COP(=O)(O)O)[C@@H](O)[C@H]1O` (stereo partly shown) [compound 9, 8-(4-(2-Aminopropanoic acid)phenyl)adenosine-5′-monophosphate], the IC50 on human TRPM2 (setting [5]) lay in the range of 100 to 900 µM. In addition, the “Effect on activation of TRPM2” value is “antagonist effect was lost” on human TRPM2 (setting [2]) and “suppressed activation of TRPM2” at human TRPM2 (setting [4]). Consider `Nc1ncnc2c1ncn2[C@H]1C[C@H](O)[C@@H](COP(=O)(O)O)O1` [compound 31, 2′-deoxy-AMP, reference compound], for which, on human TRPM2 (100 μM ADPR), the “Antagonist activity at TRPM2, in words” value is on record as “weak antagonist”. The IC50 at human TRPM2 (setting [5]) lay in the range of 100 to 900 µM. For the same molecule, the results for the “Effect on activation of TRPM2” value on human TRPM2 (setting [2]) and on human TRPM2 (setting [4]) were “antagonist effect was lost” and “suppressed activation of TRPM2”, respectively. With `Nc1ncnc2c1ncn2[C@@H]1O[C@H](COS(=O)(=O)NC(=O)c2ccccc2O)[C@@H](O)[C@H]1O` [compound 76, salicyl-adenosine monosulfamide], the “Effect on activation of TRPM2” value on human TRPM2 (setting [4]) is “noticeable antagonist activity”. `O=c1[nH]cnc2c1ncn2[C@@H]1O[C@H](COP(=O)(O)OP(=O)(O)OC[C@H]2OC(O)[C@H](O)[C@@H]2O)[C@@H](O)[C@H]1O` (stereo partly shown) [compound 13, Inosine-5′-diphosphoribose]: the “Antagonist activity at TRPM2, in words” value at human TRPM2 (100 μM ADPR) is listed as “did not antagonize activation of TRPM2”. Also, the concentration for half-maximal inhibition (IC50) on human TRPM2 (setting [3]) was more than 900 µM.

As to copper ions, the IC50 in the assay on TRPM2 channel is 2.6 µM.

On to `Nc1ncnc2c1nc(-c1ccccc1)n2[C@H]1C[C@H](O)[C@@H](COP(=O)(O)OP(=O)(O)OC[C@H]2OC(O)[C@H](O)[C@@H]2O)O1` (stereo partly shown) [compound 86, 8-Phenyl-2′-deoxyadenosine-5′-diphosphoribose], for which the “Effect on activation of TRPM2” value on human TRPM2 (setting [4]) is given as “completely inhibited activation of TRPM2”.

As to `Nc1ncnc2c1nc(Cl)n2[C@@H]1O[C@H](COP(=O)(O)O)[C@@H](O)[C@H]1O` [compound 87, 8-Cl-AMP, reference compound], at human TRPM2 (setting [4]), the “Effect on activation of TRPM2” value was “no antagonist effect”. The 50% inhibitory concentration (IC50) at human TRPM2 (setting [3]) was more than 900 µM.

Turning to `Nc1ncnc2c1ncn2[C@@H]1O[C@H](COP(=O)(O)OP(=O)(O)OC2CCCC2)[C@@H](O)[C@H]1O` [compound 80, β-Cyclopentyl-ADP], on human TRPM2 (setting [4]), the “Effect on activation of TRPM2” value is listed as “partial inhibition”.

In general, IC50 refers to the concentration needed to halve the response being measured.
